Experimental findings from US20190134005A1 (BioMarin Pharmaceutical Inc., priority 2016, published 2019) are described below.

This experiment has as its target T1, human CGT (Homo sapiens, UniProt Q16880).
T1 sequence (Q16880 21-541): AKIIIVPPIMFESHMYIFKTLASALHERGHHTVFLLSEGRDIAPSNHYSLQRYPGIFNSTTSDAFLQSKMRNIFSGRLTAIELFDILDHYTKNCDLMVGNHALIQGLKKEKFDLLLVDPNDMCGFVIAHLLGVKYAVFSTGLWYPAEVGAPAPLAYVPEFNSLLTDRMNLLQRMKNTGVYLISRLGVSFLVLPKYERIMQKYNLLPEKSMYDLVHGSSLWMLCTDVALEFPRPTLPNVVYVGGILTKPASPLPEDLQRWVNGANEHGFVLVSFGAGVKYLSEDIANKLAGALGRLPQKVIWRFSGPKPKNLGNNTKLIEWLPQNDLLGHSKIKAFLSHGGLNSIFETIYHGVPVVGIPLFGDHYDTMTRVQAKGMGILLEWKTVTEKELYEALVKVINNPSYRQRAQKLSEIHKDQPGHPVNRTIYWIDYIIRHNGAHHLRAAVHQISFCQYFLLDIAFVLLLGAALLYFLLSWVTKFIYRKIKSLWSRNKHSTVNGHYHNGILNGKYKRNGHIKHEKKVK
Briefly: Assay 1: CGT Enzymatic Assay (RapidFire/MS/MS, 0.01% Tween 80). Conditions: Table 1, Compounds of Formula (I) and Formula (II), CGT enzymatic assay, read-out: IC50. Type of experiment: biochemical.

Where [1] appears, read: C6-NBD-dihydro-galactosylceramide readout.

Structures are written as SMILES. Where two headings read alike, the source gives them in different places.

Turning to `CCc1c(-c2cccc(OC(F)(F)F)c2)n(-c2ccc(Cl)cc2)c(=O)n1-c1ccc(Cl)cc1` [Compound 247, 1,3-bis(4-chlorophenyl)-4-ethyl-5-(3-(trifluoromethoxy)phenyl)-1,3-dihydro-2H-imidazol-2-one], the IC50 – broadly, the concentration at which inhibition is half-maximal – was less than 1000 nM.

For the compound `N#Cc1ccc(N2C(=O)N(c3ccccc3)C3(CCC3)C2(O)c2cccc(OC(F)(F)F)c2)cc1` (centres unmarked) [Example 335, 4-(8-hydroxy-6-oxo-5-phenyl-8-(3-(trifluoromethoxy)phenyl)-5,7-diazaspiro[3.4]octan-7-yl)benzonitrile], the IC50 under setting [1] is less than 1000 nM.

With `N#Cc1cccc(C2(O)N(c3ccc(Cl)cc3)C(=O)N(c3ccc(Cl)cc3)C23CNC3)c1` (centres unmarked) [Compound 300, 3-(5,7-bis(4-chlorophenyl)-8-hydroxy-6-oxo-2,5,7-triazaspiro[3.4]octan-8-yl)benzonitrile 2,2,2-trifluoroacetate], the half-maximal inhibitory concentration (IC50) under setting [1] fell in the range of 1000 to 10000 nM.

For `Cc1ccc(N2C(=O)N(c3ccc(C#N)cc3)C(O)(c3cccc(OC(F)(F)F)c3)C23CCC3)cc1` (centres unmarked) [Compound 281, 4-(8-hydroxy-6-oxo-5-(p-tolyl)-8-(3-(trifluoromethoxy)phenyl)-5,7-diazaspiro[3.4]octan-7-yl)benzonitrile], under setting [1], the half-maximal inhibitory concentration (IC50) is less than 1000 nM.

Regarding `CCCCC1N(c2ccc(Cl)cc2)C(=O)N(c2ccc(Cl)cc2)C1(O)c1cccc(C#N)c1` (centres unmarked) [Compound 116, 3-(5-butyl-1,3-bis(4-chlorophenyl)-4-hydroxy-2-oxoimidazolidin-4-yl)benzonitrile], the IC50 was less than 1000 nM.

On to `COc1cccc(C2(O)CN(c3ccc(Br)cc3)C(=O)N2c2ccc(Br)cc2)c1` (centres unmarked) [Example 30, 1,3-bis(4-bromophenyl)-4-hydroxy-4-(3-methoxyphenyl)imidazolidin-2-one], for which the IC50 was 1000 to 10000 nM.

As for `CCC1N(c2ccc(Cl)cc2)C(=O)N(c2ccc(Cl)cc2)C1(O)c1cccc(C#N)c1` (centres unmarked) [Compound 106, 3-(1,3-bis(4-chlorophenyl)-5-ethyl-4-hydroxy-2-oxoimidazolidin-4-yl)benzonitrile], the IC50 is less than 1000 nM.

In the case of `O=C1N(c2ccc(Cl)cc2)C(=O)C(O)(c2ccc(Cl)cc2)N1c1ccc(Cl)cc1` (centres unmarked) [Compound 154, 1,3,5-tris(4-chlorophenyl)-5-hydroxyimidazolidine-2,4-dione], the IC50 lay within 50000 to 100000 nM.

On to `CCc1cccc(C2(O)[C@@H](C)N(c3ccc(Br)cc3)C(=O)N2c2ccc(Br)cc2)c1` (stereo partly drawn) [Compound 68-2, (5R)-1,3-bis(4-bromophenyl)-4-(3-ethylphenyl)-4-hydroxy-5-methylimidazolidin-2-one], for which the IC50 is less than 1000 nM.

Regarding `O=C1N(c2ccc(Cl)cc2Cl)CC(O)(c2ccccc2)N1c1ccc(Cl)cc1Cl` (centres unmarked) [Example 57, 1,3-bis(2,4-dichlorophenyl)-4-hydroxy-4-phenylimidazolidin-2-one], the IC50 was more than 50000 nM.

Take `O=C1N(c2ccc(Cl)cc2)[C@H]([C@H]2CCCO2)C(O)(c2cccc(Cl)c2)N1c1ccc(Cl)cc1` (single isomer, unassigned) [Compound 117-2]: the IC50 was in the range of 1000 to 10000 nM.

Turning to `Cc1c(-c2cccc(C(C)O)c2)n(-c2ccc(Cl)cc2)c(=O)n1-c1ccc(Cl)cc1` (centres unmarked) [Example 37, 1,3-bis(4-chlorophenyl)-4-(3-(1-hydroxyethyl)phenyl)-5-methyl-1,3-dihydro-2H-imidazol-2-one], the half-maximal inhibitory concentration (IC50) is 1000 to 10000 nM.

For the compound `CCC1N(c2ccc(Cl)cc2)C(=O)N(c2ccc(Cl)cc2)C1(O)c1cccc(OC(F)(F)F)c1` (stereo in doubt) [Compound 82-2, (5R)-1,3-bis(4-chlorophenyl)-5-ethyl-4-hydroxy-4-(3-(trifluoromethoxy)phenyl)imidazolidin-2-one], the half-inhibitory concentration (IC50) is less than 1000 nM.

On to `CCC[C@H]1N(c2ccc(Br)cc2)C(=O)N(c2ccc(Br)cc2)C1(O)c1cccc(CC)c1` (stereo partly drawn) [Compound 88-2, (5R)-1,3-bis(4-bromophenyl)-4-(3-ethylphenyl)-4-hydroxy-5-propylimidazolidin-2-one], for which the IC50 was less than 1000 nM.

For `O=C1N(c2ccc(Cl)cc2)CC(O)(c2cccc(F)c2)N1c1ccc(Cl)cc1` (centres unmarked) [Compound 64, 1,3-bis(4-chlorophenyl)-4-(3-fluorophenyl)-4-hydroxyimidazolidin-2-one], the half-maximal inhibitory concentration (IC50) fell in the range of 1000 to 10000 nM.

For `O=c1n(-c2ccc(Cl)cc2)c(-c2cccc(Cl)c2)c(C2CCCO2)n1-c1ccc(Cl)cc1` (centres unmarked) [Compound 254, 4-(3-chlorophenyl)-1,3-bis(4-chlorophenyl)-5-(tetrahydrofuran-2-yl)-1,3-dihydro-2H-imidazol-2-one], the 50% inhibitory concentration (IC50) is 1000 to 10000 nM.

As to `CCCc1c(C(=O)c2ccccc2)n(-c2ccc(Cl)cc2)c(=O)n1-c1ccc(Cl)cc1` [Example 27, 4-benzoyl-1,3-bis(4-chlorophenyl)-5-propyl-1,3-dihydro-2H-imidazol-2-one], the IC50 was in the range of 10000 to 50000 nM.

`CC(C)[C@@H]1N(c2ccc(C(F)(F)F)cc2)C(=O)N(c2ccc(C(F)(F)F)cc2)C1(O)c1cccc(OC(F)(F)F)c1` (stereo partly drawn) [Example 196-1, (5S)-4-hydroxy-5-isopropyl-4-(3-(trifluoromethoxy)phenyl)-1,3-bis(4-(trifluoromethyl)phenyl)imidazolidin-2-one]: the IC50 is less than 1000 nM.

As to `O=C1N(c2ccc(Cl)cc2)CC(O)(c2ccccc2)N1c1ccc(Cl)cc1` (centres unmarked) [Example 12, 1,3-bis(4-chlorophenyl)-4-hydroxy-4-phenylimidazolidin-2-one], the IC50 lay within 1000 to 10000 nM.

As for `CCCCC1(O)C(=O)N(c2ccc(Br)cc2)C(=O)N1c1ccc(Br)cc1` (centres unmarked) [Compound 152, 1,3-bis(4-bromophenyl)-5-butyl-5-hydroxyimidazolidine-2,4-dione], the IC50 was in the range of 50000 to 100000 nM.

For the compound `N#Cc1cc(Cl)cc(C2(O)CN(c3ccc(Cl)cc3)C(=O)N2c2ccc(Cl)cc2)c1` (centres unmarked) [Compound 95, 3-(1,3-bis(4-chlorophenyl)-4-hydroxy-2-oxoimidazolidin-4-yl)-5-chlorobenzonitrile], the half-maximal inhibitory concentration (IC50) fell in the range of 1000 to 10000 nM.

Regarding `O=C1N(c2ccc(Br)cc2)C(O)[C@@](c2ccccc2)(C2CC2)N1c1ccc(Br)cc1` (stereo partly drawn) [Example 209-1, (4S)-1,3-bis(4-bromophenyl)-4-cyclopropyl-5-hydroxy-4-phenylimidazolidin-2-one], the concentration for half-maximal inhibition (IC50) fell in the range of 10000 to 50000 nM.

Consider `COC[C@@H]1N(c2ccc(Cl)cc2)C(=O)N(c2ccc(Cl)cc2)C1(O)c1cccc(C(F)(F)F)c1` (stereo partly drawn) [Compound 92-1, (5S)-1,3-bis(4-chlorophenyl)-4-hydroxy-5-(methoxymethyl)-4-(3-(trifluoromethyl)phenyl)imidazolidin-2-one], for which the IC50 is less than 1000 nM.

As for `O=C1N(c2ccc(Br)cc2)CC(O)(c2ccccc2)N1c1ccccc1` (centres unmarked) [Example 28, 1-(4-bromophenyl)-4-hydroxy-3,4-diphenylimidazolidin-2-one], the IC50 is 10000 to 50000 nM.

Take `CC(C)C1(c2cccc(OC(F)(F)F)c2)C(O)N(c2ccc(Cl)cc2)C(=O)N1c1ccc(Cl)cc1` (centres unmarked) [Example 220, 1,3-bis(4-chlorophenyl)-5-hydroxy-4-isopropyl-4-(3-(trifluoromethoxy)phenyl)imidazolidin-2-one]: the IC50 was less than 1000 nM.

For the compound `O=C1N(c2ccc(Cl)cc2)C2(CC(F)(F)C2)C(O)(c2cccc(OC(F)(F)F)c2)N1c1ccc(Cl)cc1` (centres unmarked) [Compound 304, 5,7-bis(4-chlorophenyl)-2,2-difluoro-8-hydroxy-8-(3-(trifluoromethoxy)phenyl)-5,7-diazaspiro[3.4]octan-6-one], the half-maximal inhibitory concentration (IC50) under setting [1] is less than 1000 nM.
